Structures are written as SMILES.

One series relates to SKOV3 cells. In words: Serum starved proliferation assay on the ovarian carcinoma SKOV3 cells (C3). The series is classed as cell-based. Particulars: Homo sapiens, SK-OV-3, 72 h, EGF stimulated (100 ng/ml, 72 hours, serum free) or 72 hours with compounds; MTT cell viability assay; read-out: SKOV3 cell (C3): pIC50 (converted). The essentials:
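SKOV3 cells grown 24 h in 10% FCS, then treated with compound under serum-free conditions (37 °C, 5% CO2) and stimulated 72 h with EGF at 100 ng/ml final; read-out by MTT viability. Alternative format: compound for 72 h after the same 24 h FCS step, also by MTT.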

Series [1] deals with T1, EGFR (Homo sapiens, UniProt P00533). The series can be described thus: ELISA assay of EGFR tyrosine kinase activity (C4). Format: biochemical. The settings on record: poly(Glu, Tyr) coated plate, 5 μM ATP, room temperature 10 min. Here is the method:
The EGFR ELISA is generally described by Yang, E. B. et al., 2001, Biochimica et Biophysica Acta, 1550; 144.
For the determination of EGFR tyrosine kinase activity, 100 μl of 0.4 μg/ml poly(Glu, Tyr) in PBS was coated per well on a 96-well microplate at 37° C. overnight. […] After washing three times with PBS the plates were either used immediately or stored at 4° C. Prior to the determination of the EGFR tyrosine kinase activity, the coated plates were washed two times with PBS. Next, to each well 88 μl of an ATP dilution (50 mM Tris HCl pH 8.0, 10 mM MgCl2, 100 μM Na3VO4, 1 mM DTT, 5 μM ATP) and 2 μl with various concentrations of the compounds to be tested, were added. The EGFR tyrosine kinase-catalysed reaction was started by the addition of 10 μl of diluted EGFR (dilution→0.05 μg per well enzyme diluted in 50 mM TrisHCl pH 8.0+0.1% BSA). After incubation at room temperature for 10 min, the reaction was stopped by washing five times with PBS with 0.1% Tween 20. Subsequently […] of recombinant anti-phosphotyrosine horseradish peroxidase conjugate (1:2500) in BSA (10 mg/ml in PBS) was added. After incubation at room temperature for 1 h, the microplate was washed five times with PBS/Tween 20. After the microplate was incubated with 100 μl of TMB-ELISA (1-step Ultra TMB-ELISA, Pierce) until colour development, 100 μl of 0.5 M H2SO4 was added to stop the reaction, and it was read in a microplate reader at 450-655 nm.
Target sequence in this assay (P00533 25-1210): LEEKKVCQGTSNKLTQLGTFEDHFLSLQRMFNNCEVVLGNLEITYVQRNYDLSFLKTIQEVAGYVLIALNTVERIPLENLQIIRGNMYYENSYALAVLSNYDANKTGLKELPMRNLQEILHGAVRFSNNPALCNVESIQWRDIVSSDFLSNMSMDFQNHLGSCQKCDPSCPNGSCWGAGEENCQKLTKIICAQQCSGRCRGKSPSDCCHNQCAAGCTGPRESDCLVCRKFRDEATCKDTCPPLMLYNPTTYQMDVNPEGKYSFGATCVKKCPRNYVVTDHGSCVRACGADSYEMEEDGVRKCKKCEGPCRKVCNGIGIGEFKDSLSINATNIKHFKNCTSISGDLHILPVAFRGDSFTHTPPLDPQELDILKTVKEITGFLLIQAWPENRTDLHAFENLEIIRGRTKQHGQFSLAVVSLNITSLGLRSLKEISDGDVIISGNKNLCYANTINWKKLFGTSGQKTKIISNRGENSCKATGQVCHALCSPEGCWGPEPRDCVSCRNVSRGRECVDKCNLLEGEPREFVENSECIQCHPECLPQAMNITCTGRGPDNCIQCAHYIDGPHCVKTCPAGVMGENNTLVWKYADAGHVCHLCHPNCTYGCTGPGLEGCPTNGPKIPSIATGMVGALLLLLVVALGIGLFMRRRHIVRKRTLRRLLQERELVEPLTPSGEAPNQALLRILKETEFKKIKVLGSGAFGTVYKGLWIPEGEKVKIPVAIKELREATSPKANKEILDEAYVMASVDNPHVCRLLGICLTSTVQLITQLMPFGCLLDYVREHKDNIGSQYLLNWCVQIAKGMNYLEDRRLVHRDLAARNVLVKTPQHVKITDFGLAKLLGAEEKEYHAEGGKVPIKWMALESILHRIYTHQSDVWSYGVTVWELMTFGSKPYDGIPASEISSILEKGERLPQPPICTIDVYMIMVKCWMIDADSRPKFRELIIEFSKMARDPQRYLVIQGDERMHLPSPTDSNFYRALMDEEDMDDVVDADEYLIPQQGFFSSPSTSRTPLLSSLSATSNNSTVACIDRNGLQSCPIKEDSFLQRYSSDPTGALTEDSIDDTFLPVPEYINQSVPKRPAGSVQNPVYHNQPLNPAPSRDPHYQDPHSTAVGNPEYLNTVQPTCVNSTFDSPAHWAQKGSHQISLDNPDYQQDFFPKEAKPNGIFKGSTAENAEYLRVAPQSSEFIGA
On the technique in general: An ELISA detects its analyte on a solid surface through an enzyme-linked reagent.

A further series relates to A431 cells. The series can be described thus: Proliferation assay on the squamous carcinoma cell line A431 cells (C5). The series is classed as cell-based. The settings on record: Homo sapiens, A-431; 72 hours with compounds; MTT cell viability assay; read-out: A431 cell (C5): pIC50 (converted).
Series [2] concerns the target T1, EGFR. In words: In vitro inhibition of EGFR using a scintillant proximity assay (C1). Format: biochemical. Also noted: 0.5 μg EGFR-kinase domain/well. Particulars: EGFR-kinase domain, poly(GT)biotin, 5.0 μM unlabeled ATP, 30° C. 60 minutes; read-out: EGFR SPA (C1): IC50. Here is the method: In the present EGFR SPA kinase reaction assay, a kinase substrate consisting of biotinylated poly(L-glutamic acid-L-tyrosine) (poly(GT)biotin), is incubated with the aforementioned protein in the presence of (^33P) radiolabeled ATP. (^33P) phosphorylation of the substrate is subsequently measured as light energy emitted using streptavidin-coated SPA beads (Amersham Pharmacia Biotech) by trapping and quantifying the binding of the biotin tagged and radiolabeled substrate.
The EGFR SPA kinase reaction is performed at 30° C. for 60 minutes in a 96-well microtiter plate. For each of the tested compounds a full dose response 1·10^−6M to 1·10^−10M has been performed. IRESSA® and Tarceva™ (erlotinib) were used as reference compounds. The 100 μl reaction volume contains 54.5 mM TrisHCl pH 8.0, 10 mM MgCl2, 100 μM Na3VO4, 5.0 μM unlabeled ATP, 1 mM DTT, 0.009% BSA, 0.8 μCi ^33P-ATP, 0.35 μg/well poly(GT)biotin and 0.5 μg EGFR-kinase domain/well. The reaction is stopped by adding to each well 100 μl of the streptavidin beads (10 mg/ml in PBS+100 mM EDTA+100 μM ATP). The plates are than shaked at 300 rpm for 30 min to allow binding of the biotinylated substrate to the streptavidin coated beads. Than the beads are allowed to settle at the bottom of the plate for 30 minutes. The microtiterplates are centrifuges at 800 rpm for 10 minutes and the amount of phosphorylated (^33P) Poly(GT)biotin is determined by counting (30 sec/well) in a microtiterplate scintillation counter.
Target sequence in this assay (P00533 712-979 limits assumed): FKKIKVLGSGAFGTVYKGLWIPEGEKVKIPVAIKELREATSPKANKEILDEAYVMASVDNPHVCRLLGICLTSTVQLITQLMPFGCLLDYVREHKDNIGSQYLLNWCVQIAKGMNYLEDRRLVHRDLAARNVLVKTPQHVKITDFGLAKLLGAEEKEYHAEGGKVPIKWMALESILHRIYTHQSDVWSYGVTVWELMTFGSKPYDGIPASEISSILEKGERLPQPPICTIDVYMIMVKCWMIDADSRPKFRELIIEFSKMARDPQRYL

Series [3] addresses T1, EGFR. The series can be described thus: In vitro inhibition of EGFR, Flash Plate or glass-fiber filter technology (C2). Format: biochemical. Set-up: 0.5 μg EGFR-kinase domain/well. Particulars: EGFR-kinase domain, 5.0 μM unlabeled ATP, read-out: Kinase activity.(C2): pIC50 (converted). The method, boiled down: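 EGFR kinase domain (0.5 μg/well) phosphorylated poly(GT) with 5.0 μM ATP plus AT^33P, dose response 1·10^−6 to 1·10^−10 M. Flash Plate: biotin-poly(GT), Tris pH 8.0, 30° C, 60 min, scintillation counting. Filter: Tris pH 7.5 with MnCl2, 25° C, 10 min, 33P counted on glass-fiber filter by phosphorimaging.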
Target sequence in this assay (P00533 712-979 limits assumed): as above

Consider `COc1cc2ncnc3c2cc1OC(=O)CCCCCOc1c(C)cccc1N3` [Compound 1, 4,6-ethanediylidene-19H-pyrimido[4,5-b][6,13,1]benzodioxaazacyclo-pentadecin-8(9H)-one, 10,11,12,13-tetrahydro-20-methoxy-15-methyl-], for which the IC50 with SKOV3 cells is above 2000 nM; on EGFR [1], above 1000 nM; in the series with A431 cells, above 1000 nM; on EGFR [2], above 100 nM; on EGFR [3], above 10000 nM.

For orientation: melting point means the temperature, or range, at which the solid turns liquid. Consider `COc1cc2ncnc3c2cc1OCCCCCCOc1c(Cl)cccc1N3` [Compound 2, 4,6-ethanediylidene-19H-pyrimido[4,5-b][6,13,1]benzodioxaazacyclo-pentadecine, 15-chloro-8,9,10,11,12,13-hexahydro-20-methoxy-], for which the melting point lay within 255.5 to 260.2 °C. Moreover, the IC50 with SKOV3 cells is above 2000 nM. For the same molecule, on EGFR [1], the IC50 is above 1000 nM. In addition, the IC50 in the series with A431 cells was above 1000 nM. Also, the IC50 on EGFR [2] was above 100 nM. For the same molecule, the IC50 at EGFR [3] is 100 nM.

In turn, `COc1cc2ncnc3c2cc1OCCCCCCOc1ccc(Cl)cc1N3` [Compound 3, 4,6-ethanediylidene-19H-pyrimido[4,5-b][6,13,1]benzodioxaazacyclo-pentadecine, 17-chloro-8,9,10,11,12,13-hexahydro-20-methoxy-] had a melting point of 241.5 to 242.7 °C. For the same molecule, the IC50 with SKOV3 cells was 1350 nM. This molecule registered an IC50 on EGFR [1] above 1000 nM. The IC50 in the series with A431 cells is above 1000 nM. Moreover, the IC50 on EGFR [2] amounted to 3.61 nM. Further, the IC50 at EGFR [3] was 15.8 nM.

With `COc1cc2ncnc3c2cc1OCCCCCCOc1ccccc1N3` [Compound 5, 4,6-ethanediylidene-19H-pyrimido[4,5-b][6,13,1]benzodioxaazacyclo-pentadecine, 8,9,10,11,12,13-hexahydro-20-methoxy-], the melting point lay in the range of 243.3 to 251.2 °C. In addition, the IC50 in the series on SKOV3 cells is 4790 nM. On EGFR [1], this molecule came in with an IC50 above 1000 nM. In addition, the IC50 on EGFR [2] was 81.1 nM. The IC50 on EGFR [3] is 398 nM.

`COc1cc2ncnc3c2cc1OCCCCCCOc1ccc(Br)cc1N3` [Compound 6, 4,6-ethanediylidene-19H-pyrimido[4,5-b][6,13,1]benzodioxaazacyclo-pentadecine, 17-bromo-8,9,10,11,12,13-hexahydro-20-methoxy-] returned a melting point of 228.6 to 234.8 °C. The IC50 in the series on SKOV3 cells is 1820 nM. In addition, the IC50 against EGFR [1] was 359 nM. Also, at EGFR [2], the IC50 was 4.4 nM. Further, the IC50 at EGFR [3] is 25.1 nM.

The molecule `COc1cc2ncnc3c2cc1OCCCCCCCOc1ccc(Cl)cc1N3` [Compound 7, 4,6-ethanediylidene-8H,20H-pyrimido[4,5-b][6,14,1]benzo-dioxaazacyclohexadecine, 18-chloro-9,10,11,12,13,14-hexahydro-21-methoxy-] displayed a melting point of 240.6 to 243.7 °C. Also, in the series with SKOV3 cells, the IC50 is above 10000 nM. Further, the IC50 at EGFR [1] was above 1000 nM. At EGFR [2], the IC50 came to 6.64 nM. For the same molecule, the IC50 on EGFR [3] was 79.4 nM.

Regarding `COc1cc2ncnc3c2cc1OCCCCCCCCOc1ccc(Cl)cc1N3` [Compound 8, 4,6-ethanediylidene-21H-pyrimido[4,5-b][6,15,1]benzodioxaazacyclo-heptadecine, 19-chloro-8,9,10,11,12,13,14,15-octahydro-22-methoxy-], the melting point fell in the range of 147.7 to 151.1 °C. For the same molecule, in the series on SKOV3 cells, the IC50 is above 10000 nM. At EGFR [1], this molecule returned an IC50 of 329 nM. For the same molecule, the IC50 on EGFR [2] came to 3.97 nM. The IC50 at EGFR [3] is 31.6 nM.

Source of the values: US8394786B2, “Quinazoline derivatives” (Janssen Pharmaceutica N.V., priority 2003, dated 2013).
